Active and inactive are the calls of the source.
What was measured:
[1] = biological target: T1, Heat shock factor protein 1 (Mus musculus, UniProt P38532); assay: inhibition of MG132-induced HSE-luciferase signal, confirmation, cell-based, NIH3T3, luminescence, dose retest (AID 2382); format: functional;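 further: NIH3T3 fibroblasts with HSF1-driven luciferase reporter stressed by proteasome inhibitor MG132; luminescence from HSF1-driven luciferase expression after 8 hours of MG132 stress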
T1 sequence (P38532 whole entry): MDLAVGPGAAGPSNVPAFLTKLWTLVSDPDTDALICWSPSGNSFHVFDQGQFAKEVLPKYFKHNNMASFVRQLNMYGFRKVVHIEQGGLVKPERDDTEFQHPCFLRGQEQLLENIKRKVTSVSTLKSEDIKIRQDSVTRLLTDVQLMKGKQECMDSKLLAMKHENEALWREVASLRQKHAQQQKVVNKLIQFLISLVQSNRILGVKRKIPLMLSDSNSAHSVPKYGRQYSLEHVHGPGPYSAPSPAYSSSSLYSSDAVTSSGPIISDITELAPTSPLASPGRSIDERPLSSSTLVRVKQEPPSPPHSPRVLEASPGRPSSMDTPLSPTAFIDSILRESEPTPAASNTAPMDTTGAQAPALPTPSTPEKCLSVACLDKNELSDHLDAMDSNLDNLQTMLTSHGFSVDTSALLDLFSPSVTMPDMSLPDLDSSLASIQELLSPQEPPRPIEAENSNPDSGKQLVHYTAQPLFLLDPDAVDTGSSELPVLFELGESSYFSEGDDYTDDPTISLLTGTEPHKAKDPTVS

[2] = HEp-2 cell cytotoxicity, dose response, cytotoxicity control for RSV inhibitor project, HTS (AID 2410); format: functional; conditions: human respiratory syncytial virus
[3] = biological target: FAD-linked sulfhydryl oxidase ALR (Homo sapiens, UniProt P55789); assay: inhibitors of human ALR sulfhydryl oxidase, dose response, biochemical, H2O2 detection, luminescence, cherry-pick (AID 493248)
Chain of FAD-linked sulfhydryl oxidase ALR (P55789 whole entry): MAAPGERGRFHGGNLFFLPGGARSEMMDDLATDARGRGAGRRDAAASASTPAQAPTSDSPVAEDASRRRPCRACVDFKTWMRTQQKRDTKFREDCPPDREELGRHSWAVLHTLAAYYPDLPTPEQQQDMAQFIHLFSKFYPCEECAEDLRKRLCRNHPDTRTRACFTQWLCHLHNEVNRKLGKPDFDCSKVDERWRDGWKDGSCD

BJ [4] = assay: cytotoxicity toward BJ-TERT fibroblasts, dose response, cell-based, RAS-independent, luminescence (AID 1933); format: functional; conditions: Homo sapiens
[5] = cytotoxicity toward DRD oncogenic fibroblasts, dose response, cell-based, non-viral oncogenic, luminescence (AID 1934); format: functional; conditions: Homo sapiens
BJ [6] = assay: cells; format: functional, cell-based; conditions: Homo sapiens
BJ [7] = assay: cytotoxicity toward BJ-TERT-LT-ST fibroblasts, dose response, cell-based, RAS-independent, luminescence (AID 1935); format: functional; conditions: Homo sapiens;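 further: BJ fibroblasts immortalized with TERT plus LT and ST oncogenes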
Cytochrome P450 2C19 = Cytochrome P450 2C19 (Homo sapiens, UniProt P33261); assay: Cytochrome panel assay with activity outcomes. Panel member name: p450-cyp2c19 Compounds with AC50 equal or less than 10 uM are considered active; format: functional; conditions: read-out: AC50
Chain of Cytochrome P450 2C19 (P33261 whole entry): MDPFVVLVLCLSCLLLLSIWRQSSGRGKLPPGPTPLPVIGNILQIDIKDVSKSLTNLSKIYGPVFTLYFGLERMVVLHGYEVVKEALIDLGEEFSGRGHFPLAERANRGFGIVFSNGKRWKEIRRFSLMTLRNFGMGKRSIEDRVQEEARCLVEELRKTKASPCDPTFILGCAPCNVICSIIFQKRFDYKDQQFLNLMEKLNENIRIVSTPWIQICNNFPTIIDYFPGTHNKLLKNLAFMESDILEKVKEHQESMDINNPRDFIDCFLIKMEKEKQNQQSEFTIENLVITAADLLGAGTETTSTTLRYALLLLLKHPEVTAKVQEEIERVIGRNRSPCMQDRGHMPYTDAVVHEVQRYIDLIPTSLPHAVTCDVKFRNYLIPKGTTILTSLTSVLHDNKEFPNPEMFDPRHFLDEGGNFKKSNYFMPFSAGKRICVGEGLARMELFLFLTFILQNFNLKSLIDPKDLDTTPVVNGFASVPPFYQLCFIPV

Cytochrome P450 2D6 = Cytochrome P450 2D6 (Homo sapiens, UniProt P10635);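 further: CYP2D6 member of a cytochrome P450 panel assay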
Chain of Cytochrome P450 2D6 (P10635 whole entry): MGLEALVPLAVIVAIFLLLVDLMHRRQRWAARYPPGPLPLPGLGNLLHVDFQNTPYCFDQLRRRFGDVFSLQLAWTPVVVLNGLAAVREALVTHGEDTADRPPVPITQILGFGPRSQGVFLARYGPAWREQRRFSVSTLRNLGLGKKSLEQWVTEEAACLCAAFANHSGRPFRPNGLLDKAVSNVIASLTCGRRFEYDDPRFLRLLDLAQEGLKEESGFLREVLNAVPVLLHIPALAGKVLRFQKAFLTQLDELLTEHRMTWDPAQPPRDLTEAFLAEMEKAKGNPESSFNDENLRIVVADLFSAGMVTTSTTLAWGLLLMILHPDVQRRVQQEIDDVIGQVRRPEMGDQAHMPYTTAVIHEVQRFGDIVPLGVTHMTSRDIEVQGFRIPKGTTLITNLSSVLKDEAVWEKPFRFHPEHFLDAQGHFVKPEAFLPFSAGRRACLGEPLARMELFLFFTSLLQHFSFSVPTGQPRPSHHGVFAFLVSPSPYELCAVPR

[8] = inhibitors of firefly luciferase expression or activity, dose response, H4 neuroglioma cells, luminescence (AID 1990); format: functional, cell-based
[9] = inhibitors of SNCA 5'UTR-driven reporter translation, confirmation, H4 neuroglioma cells, luminescence (AID 1988); format: functional, cell-based
[10] = Luminescence Cell-Based Dose Response HTS to Identify Inhibitors of 5'UTR Stem-Loop Driven Prion Protein mRNA Translation in H4 Neuroglioblastoma Cells. [Related pubchem assays: 1827 (Project Summary), 1813 (Primary HTS)]; format: functional
[11] = Luminescence Cell-Based Dose Retest to Confirm Inhibitors of Cancer Stem Cells. [Related pubchem assays (depositor defined):AID2717, AID2721]; format: functional; conditions: Homo sapiens
[12] = cytotoxicity toward NIH3T3 fibroblasts, dose response, counter-screen, cell-based, ATP luminescence, mouse fibroblasts (AID 2010); format: functional;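 further: cells exposed to compound for about 90 hours before reading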
[13] = inhibitors of intracellular T. cruzi replication, confirmation, NIH3T3 host cells, beta-gal luminescence (AID 2044); format: functional, cell-based;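 further: intracellular parasites grown in NIH/3T3 mouse fibroblasts as host cells; luminescent beta-galactosidase reporter signal from transgenic T. cruzi replicating inside host cells; inhibitors lower the luminescence signal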
Large T antigen = Large T antigen (Simian virus 40, UniProt P03070); format: functional, Betapolyomavirus macacae;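 further: Confirmatory-stage PubChem screen for compounds that inhibit SV40 T antigen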
Chain of Large T antigen (P03070 whole entry): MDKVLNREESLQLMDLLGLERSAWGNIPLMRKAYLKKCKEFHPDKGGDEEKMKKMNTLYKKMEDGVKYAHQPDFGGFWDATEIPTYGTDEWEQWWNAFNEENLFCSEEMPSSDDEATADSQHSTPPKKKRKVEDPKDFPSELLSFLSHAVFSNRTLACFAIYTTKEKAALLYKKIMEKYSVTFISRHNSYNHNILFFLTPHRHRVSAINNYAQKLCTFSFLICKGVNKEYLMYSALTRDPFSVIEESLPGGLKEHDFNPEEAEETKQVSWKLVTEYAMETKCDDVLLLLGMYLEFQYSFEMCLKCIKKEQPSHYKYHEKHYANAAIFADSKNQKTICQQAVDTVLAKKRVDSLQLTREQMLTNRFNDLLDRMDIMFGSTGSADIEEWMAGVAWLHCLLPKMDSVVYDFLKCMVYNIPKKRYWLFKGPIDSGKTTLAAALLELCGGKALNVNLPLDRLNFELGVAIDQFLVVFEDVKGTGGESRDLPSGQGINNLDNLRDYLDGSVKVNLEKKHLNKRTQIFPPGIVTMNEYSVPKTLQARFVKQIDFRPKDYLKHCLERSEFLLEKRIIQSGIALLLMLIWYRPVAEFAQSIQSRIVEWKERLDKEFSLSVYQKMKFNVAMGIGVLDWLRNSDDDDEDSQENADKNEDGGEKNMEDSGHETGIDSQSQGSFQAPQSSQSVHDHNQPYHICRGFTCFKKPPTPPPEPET

Cytochrome P450 1A2 = biological target: T2, Cytochrome P450 1A2 (Homo sapiens, UniProt P05177);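 further: PubChem cytochrome P450 panel assay, CYP1A2 panel member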
T2 sequence (P05177 whole entry): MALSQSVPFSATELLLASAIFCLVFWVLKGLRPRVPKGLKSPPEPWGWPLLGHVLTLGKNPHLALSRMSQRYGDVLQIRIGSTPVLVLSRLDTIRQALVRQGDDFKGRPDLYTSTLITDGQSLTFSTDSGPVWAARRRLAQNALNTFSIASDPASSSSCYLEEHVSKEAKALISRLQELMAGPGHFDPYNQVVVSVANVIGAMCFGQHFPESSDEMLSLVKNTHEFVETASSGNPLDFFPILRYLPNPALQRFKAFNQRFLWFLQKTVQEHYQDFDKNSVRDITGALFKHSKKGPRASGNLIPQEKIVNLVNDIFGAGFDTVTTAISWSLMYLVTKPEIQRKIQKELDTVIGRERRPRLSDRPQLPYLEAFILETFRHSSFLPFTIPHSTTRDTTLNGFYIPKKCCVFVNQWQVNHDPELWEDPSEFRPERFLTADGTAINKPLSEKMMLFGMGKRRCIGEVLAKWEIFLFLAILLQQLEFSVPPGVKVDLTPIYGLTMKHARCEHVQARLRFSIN

[14] = tested on: Streptococcus sp. 'group A'; assay: growth inhibition of control SK(-) GAS strain, dose response, counter-screen for streptokinase expression inhibitor project, luminescence, kanamycin, BacTiterGlo, confirmation (AID 1900); format: functional, organism-based
Streptokinase A = biological target: T3, Streptokinase A (Streptococcus pyogenes serotype M1, UniProt P10520); assay: S. pyogenes streptokinase expression inhibitors, potency, dose response, plasminogen activation absorbance, OD405 (AID 1914); format: functional, Streptococcus pyogenes M1 GAS;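 further: secreted streptokinase activity via plasminogen activation per viability signal from cell pellet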
T3 sequence (P10520 whole entry): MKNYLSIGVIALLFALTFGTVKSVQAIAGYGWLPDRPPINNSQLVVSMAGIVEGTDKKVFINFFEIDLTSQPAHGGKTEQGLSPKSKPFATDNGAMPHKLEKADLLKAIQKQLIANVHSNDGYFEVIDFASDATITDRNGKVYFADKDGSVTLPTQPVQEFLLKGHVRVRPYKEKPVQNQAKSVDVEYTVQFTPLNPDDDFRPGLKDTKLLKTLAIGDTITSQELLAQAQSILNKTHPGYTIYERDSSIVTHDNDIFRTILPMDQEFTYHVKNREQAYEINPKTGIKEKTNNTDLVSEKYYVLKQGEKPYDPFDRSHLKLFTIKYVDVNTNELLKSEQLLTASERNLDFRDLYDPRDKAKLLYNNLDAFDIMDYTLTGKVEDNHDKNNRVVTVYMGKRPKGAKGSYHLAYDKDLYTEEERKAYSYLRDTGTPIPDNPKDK

Streptococcus = assay: Group A Streptococcus viability loss, dose response, counter-screen for streptokinase expression inhibitor project, luminescence, BacTiterGlo (AID 1915); format: functional, organism-based;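 further: potency for reduction of bacterial viability or growth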
H4 = assay: Luminescence Cell-Based Dose Response HTS to Identify Activators of 5'UTR Stem-Loop Driven Prion Protein mRNA Translation in H4 Neuroglioblastoma Cells. [Related pubchem assays: 1829 (Project Summary), 1814 (Primary HTS)]; format: functional; conditions: Homo sapiens
[15] = Luminescence Cell-Based Dose Confirmation HTS to Identify Activators of 5'UTR Stem-Loop Driven Alpha-Synuclein mRNA Translation in H4 Neuroglioblastoma Cells. [Related pubchem assays: 1829 (Project Summary), 1814 (Primary HTS)]; format: functional
[16] = Luminescence Cell-Based Dose Response HTS to Identify Activators of Luciferase Translation or Activity in H4 […] Cells. [Related pubchem assays: 1829 (Project Summary), 1814 (Primary HTS)]; format: functional

NC1=NC(c2c[nH]nc2-c2cccc(F)c2)n2c(nc3ccccc32)N1 (centres undefined)
EC50 [1]: 27.5 µM (active)

COCCCn1c2nc3ccccc3nc2c2c(=O)n(Cc3ccc(Cl)cc3)cnc21
CC50 [2]: > 50 µM (active)

CC(C)C(=O)Nc1ccc2c(c1)nc1n2CCSC1
AC50 [3]: 0.245 µM (active)

COc1ccc(CCNC(=O)CN2CCN(Cc3ccccc3F)C2=O)cc1OC
EC50 [1]: > 195 µM (not active)

Cc1cc2nc(SCCOC(=O)Nc3cccc(Cl)c3)nc(C)c2cc1C
CC50 [2]: 32.2 µM (active)

CCOC(=O)c1sc(NC(=O)c2ccccc2OC)nc1C
EC50 (BJ [4]): 22.3 µM (active)
EC50 [5]: 14.7 µM (active)
EC50 (BJ [6]): 22.8 µM (active)
EC50 (BJ [7]): > 150 µM (inconclusive)

COc1cc(/C=N\Nc2nc3ccccc3[nH]2)cc(OC)c1OC
AC50 (Cytochrome P450 2C19): 17.8 µM (inconclusive)
AC50 [3]: 0.997 µM (active)
AC50 (Cytochrome P450 2D6): 17.8 µM (inconclusive)

COC(=O)C1=C(c2cc3ccccc3o2)C[C@@H]2CC[C@H]1N2C(=O)N1CCCCC1
EC50 (BJ [4]): 4.58 µM (active)
EC50 [5]: 3.8 µM (inconclusive)
EC50 [8]: > 120 µM (not active)
EC50 (BJ [6]): 28.8 µM (active)
EC50 [9]: 10.5 µM (active)
EC50 (BJ [7]): 20.9 µM (active)
EC50 [10]: 12.1 µM (active)

CNc1ccccc1C(C)(C)c1cc(-c2cc(C)cc(C)c2)no1
AC50 [11]: 13.3 µM (active)

CN(C)c1ccc(CNS(=O)(=O)c2ccc3c(c2)NC(=O)CS3)cc1
AC50 [3]: 7.37 µM (active)

Clc1cccc(Nc2nc(-c3ccncc3)cs2)c1
EC50 [12]: 5.87 µM (active)
AC50 [11]: 3.5 µM (active)
EC50 [13]: 0.714 µM (active)

O=C(O)c1ccccc1C(=O)Nc1ccc(Nc2ccc([N+](=O)[O-])cc2[N+](=O)[O-])cc1
AC50 [3]: 3.88 µM (active)

COc1ccc(NCc2ccc(OC)c(Cn3ccnc3)c2)c(OC)c1
EC50 [12]: > 60 µM (not active)
AC50 [3]: 1.76 µM (active)
EC50 [13]: 0.588 µM (active)

COc1cc(SC)ccc1C(=O)N1CCN(c2ccc(O)cc2)CC1
IC50 (Large T antigen): 5.95 µM (active)
AC50 [3]: 0.68 µM (active)

C=CCn1c(SCc2c(C)noc2C)nc2sc3c(c2c1=O)CCC(C)C3 (centres undefined)
EC50 (BJ [4]): 23.8 µM (active)
EC50 [5]: 9.03 µM (active)
EC50 (BJ [6]): 4.12 µM (inconclusive)
EC50 (BJ [7]): > 150 µM (inconclusive)

Cn1cc(CCNC(=O)CC2C(=O)NCCN2Cc2cccc(Oc3ccccc3)c2)cn1 (centres undefined)
EC50 [1]: > 195 µM (not active)

Cc1cccc2c1NC(=O)/C2=C\C(=O)c1cccs1
AC50 [11]: 5.12 µM (active)

Cc1cc(C(=O)CSc2ccccc2)cc(C)c1O
CC50 [2]: 49.6 µM (active)

CNc1nnc(-c2cccc(N(C)C)c2)s1
AC50 [3]: 0.046 µM (active)

S=C(Sc1ccc(Cl)cc1)Sc1ccc(Cl)cc1
EC50 (BJ [4]): 3.4 µM (inconclusive)
EC50 [5]: 9.25 µM (active)
EC50 (BJ [6]): > 150 µM (inconclusive)
EC50 (BJ [7]): 13.1 µM (inconclusive)

CN(C)c1ccc(-c2nnc(S)n2-c2ccccc2)cc1
AC50 [3]: 64.6 µM (active)

O=C(O)Cc1cc(I)c(Oc2ccc(O)c(I)c2)c(I)c1 [TIRATRICOL]
CC50 [2]: 13 µM (active)
AC50 (Cytochrome P450 1A2): 12.6 µM (inconclusive)

Cc1ccc(-c2nnc(SCC(=O)N/N=C/c3c(C)nn(-c4ccccc4)c3C)n2-c2ccccc2)cc1
CC50 [2]: 17.2 µM (active)

Fc1cccc(-c2cc3nc4c(c(NCc5ccco5)n3n2)CCCC4)c1
AC50 [11]: 6.81 µM (active)

COc1cccc(CNc2ncc(C(=O)Nc3cc(OC)c(OC)c(OC)c3)c(C)n2)c1
EC50 (BJ [4]): > 150 µM (not active)
EC50 [5]: 19.6 µM (inconclusive)
EC50 (BJ [6]): 46.7 µM (active)
EC50 (BJ [7]): 17.9 µM (inconclusive)

Cc1ccc(-c2nnc(SCC(=O)N/N=C/c3c(C)nn(-c4ccccc4)c3C)n2-c2ccc(C)cc2)cc1
CC50 [2]: 20.5 µM (active)

O=C(Nc1ccc(Nc2ccccc2)cc1)c1cccc(F)c1
AC50 [11]: 3.9 µM (active)

Cc1cc(C(=O)N2CCCC(Nc3ccccc3)C2)c2ccc(F)cc2n1 (centres undefined)
AC50 [3]: 2.24 µM (active)

Cc1ccccc1OCC(=O)NC(=S)Nc1ccc(Br)c(C)n1
EC50 [14]: > 150 µM (not active)
EC50 (Streptokinase A): 57.1 µM (active)
EC50 [8]: 25.1 µM (active)
EC50 [9]: 14.2 µM (active)
AC50 (Cytochrome P450 1A2): 3.16 µM (inconclusive)
EC50 (Streptococcus): > 150 µM (not active)
EC50 [10]: 21 µM (active)

COc1ccc(/C=N/NC(=O)c2cc(-c3cccn3C)[nH]n2)cc1OC
EC50 [1]: > 195 µM (not active)

Cc1cccc(NC(=S)N/N=C/c2c[nH]c3ccccc23)c1
AC50 [11]: 0.704 µM (active)

CC(=O)N1c2ccc(S(=O)(=O)N3c4ccccc4CC3C)cc2CC1C (centres undefined)
CC50 [2]: 15.1 µM (active)

COc1ccc(Nc2cc(C)c3ccc(O)cc3n2)cc1
CC50 [2]: 11.7 µM (active)

Cc1ccc(CN2CC(C(=O)Nc3ccc(C)cn3)CC2=O)cc1 (centres undefined)
EC50 [1]: > 195 µM (not active)

O=Cc1c(N2CCN(c3ccccc3)CC2)nc2ccccn2c1=O
EC50 (H4): > 120 µM (not active)
EC50 [15]: > 120 µM (not active)
EC50 [16]: 17.8 µM (active)
AC50 [3]: 3.72 µM (active)

C[C@@H]1CCC(=O)N(CC[C@H](Sc2ccc(Br)cc2)c2ccccc2)CC1
AC50 [11]: 5.03 µM (active)

O=C(NN=C1CCCCCCCCCCC1)c1ccccc1F
EC50 [1]: > 195 µM (not active)

Cc1cc(C)n(CCc2nc(-c3ccco3)cs2)n1
IC50 (Large T antigen): 65.6 µM (active)
AC50 [3]: 4.56 µM (active)

Cc1ccc2nc(O)c(CN(c3cccc(C)c3C)S(=O)(=O)c3ccccc3)cc2c1
EC50 (BJ [4]): 78.2 µM (active)
EC50 [5]: 69.9 µM (active)
EC50 (BJ [6]): 46.6 µM (active)
EC50 (BJ [7]): > 150 µM (not active)

COc1ccc(NC(S)=Nc2ccc(Oc3ccccc3)cc2)cc1
EC50 [1]: > 195 µM (not active)
